Test results reported in patent US9175320B2, “Processes for the preparation of (R)-2-(7-4-cyclopentyl-3-(trifluoromethyl)benzyloxy)-1,2,3,4-tetrahydrocyclopenta[B]indol-3-yl)acetic acid and salts thereof” (ARENA PHARMACEUTICALS, INC., priority 2010, dated 2015).

Columns and labels:
[1] = tested on: patients with multiple sclerosis; details: Phase II, relapsing-remitting multiple sclerosis; cited from earlier work
mice [2] = details: by reducing the number of mature osteoclasts attached to the bone surface; cited from earlier work
mice [3] = details: oral administration to mice; cited from earlier work
[4] = spared nerve injury model; cited from earlier work
[5] = short-term high dose; cited from earlier work
[6] = Hale et al. 2004; cited from earlier work
S1P3 receptor = S1P3 receptor (Homo sapiens (Human), UniProt Q99500); details: due to agonism of the S1P3 receptor; cited from earlier work
Sequence of S1P3 receptor (Q99500 whole entry): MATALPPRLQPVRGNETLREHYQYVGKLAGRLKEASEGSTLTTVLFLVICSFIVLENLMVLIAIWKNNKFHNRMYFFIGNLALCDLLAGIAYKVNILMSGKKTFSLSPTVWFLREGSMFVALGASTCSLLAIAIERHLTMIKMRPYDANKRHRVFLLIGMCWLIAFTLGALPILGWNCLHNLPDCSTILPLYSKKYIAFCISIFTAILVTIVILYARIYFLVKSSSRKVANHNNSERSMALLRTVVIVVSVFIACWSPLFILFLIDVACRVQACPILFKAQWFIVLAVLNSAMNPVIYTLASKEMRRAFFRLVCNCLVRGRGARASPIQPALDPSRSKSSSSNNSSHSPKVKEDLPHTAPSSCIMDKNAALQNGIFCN

C57BL/6 mice [7] = details: prophylactic oral administration, 1 mg/kg, three times a week; cited from earlier work
[8] = tested on: dendritic cells infected with Francisella tularensis; details: Bar-Haim et al. 2008; cited from earlier work
mice [9] = details: murine; cited from earlier work
Female Lewis rats = test: Collagen-induced arthritis rat model; format: in vivo; details: 0.3, 1 and 3 mg/kg p.o., q.d., day 0 through day 16 (FIG. 3)
Protocol: Female Lewis rats were used in this study. Acclimated animals were anesthetized with isoflurane and given the first collagen injection (day 0). On day 6, they were anesthetized again for the second collagen injection. Collagen was prepared by making a 4 mg/mL solution in 0.01N acetic acid. Equal volumes of collagen and incomplete Freund's adjuvant were emulsified by hand mixing until a bead of this material held its form when placed in water. Each animal received 300 μL of the mixture each time, spread over 3 subcutaneous sites on the back. Treatment (p.o., q.d., 5 mL/kg dosing volume) began on day 0 and continued through day 16 with vehicle or compounds given at 24 h intervals. Rats were weighed on days 0, 3, 6 and 9 through 17 and caliper measurements of the ankles taken on days 9 through 17.

BALB/c mice = test: Mouse Peripheral Lymphocyte Lowering (PLL) assay; format: in vivo; details: 1.00 mg/kg oral dose, 5 hours post-dose, male BALB/c mice, vs vehicle (FIG. 1)
Protocol: Animals: Male BALB/c mice (Charles River Laboratories, Wilmington, Mass.) were housed four per cage and maintained in a humidity-controlled (40 to 60%) and temperature-controlled (68 to 72° F.) facility on a 12 h:12 h light/dark cycle (lights on at 6:30 am) with free access to food (Harlan Teklad, Orange, Calif., Rodent Diet 8604) and water. Mice were allowed one week of habituation to the animal facility before testing. PLL Assay: […] Peripheral blood samples were collected at 5 hours post-dose. The mice were anesthetized with isoflurane and blood was collected via cardiac puncture. A complete cell count (CBC), including lymphocyte count, was obtained using a CELL-DYN® 3700 (Abbott Laboratories, Abbott Park, Ill.) instrument. Results are presented in FIG. 1, in which peripheral blood lymphocyte (PBL) count is shown for the 5 hour group.

Sprague-Dawley rats [10] = test: Cardiac telemetry in the rat (bradycardia assay); format: in vivo; details: oral, vehicle PEG400, heart rate measured over a 120 min period, vs vehicle
Protocol: Animals: Male Sprague-Dawley rats (250-300 g at time of surgery) were implanted by Charles River Laboratories (Wilmington, Mass.) with cardiac transmitting devices (Data Sciences PhysioTel C50-PXT) into the peritoneal space, with a pressure-sensing catheter inserted into the descending aorta. Rats are allowed at least one week to recover. Rats were housed in individual cages and maintained in a humidity-controlled (30-70%) and temperature-controlled (20-22° C.) facility on a 12 h:12 h light/dark cycle (lights on at 7:00 am) with free access to food (Harlan-Teklad, Orange, Calif., Rodent Diet 8604) and water. Rats were allowed one week of habituation to the animal facility before testing. Measurement of cardiovascular parameters: The implanted transmitting devices transmitted continuous measurements of blood pressure (systolic, diastolic, mean arterial, pulse), heart rate, body temperature, and motor activity in freely moving conscious animals. […] Telemetry recording occurred over a 21-h period, starting at noon and continuing until 9:00 am the following day. A maximum of eight rats were tested at a time, and the same eight rats were utilized for all treatment groups in a within-subject design. Drug treatment: […] A full study (vehicle+3 doses) required four separate testing sessions, which occur on Mondays-Tuesdays and Thursdays-Fridays. […]

Sprague-Dawley rats [11] = test: Rat Peripheral Lymphocyte Lowering (PLL) assay; format: in vivo; details: 1.00 mg/kg oral dose, 5 hours post-dose, male Sprague-Dawley rats, vs vehicle (FIG. 2)
Protocol: Animals: Male Sprague-Dawley rats (7 weeks of age at start of study) (Charles River Laboratories) were housed two per cage and maintained in a humidity-controlled (40-60%) and temperature-controlled (68-72° F.) facility on a 12 h: 12 h light/dark cycle (lights on at 6:30 am) with free access to food (Harlan Teklad, Orange, Calif., Rodent Diet 8604) and water. Rats were allowed one week of habituation to the animal facility before testing. PLL Assay: […] Peripheral blood samples were collected at 5 hours post-dose. Blood was collected via indwelling catheter. A complete cell count (CBC), including lymphocyte count, was obtained using a CELL-DYN® 3700 (Abbott Laboratories, Abbott Park, Ill.) instrument. Results are presented in FIG. 2, in which peripheral blood lymphocyte (PBL) count is shown for the 5 hour group.

S1P1 receptor = S1P1 receptor (Homo sapiens (Human), UniProt P21453); test: HTRF assay for direct cAMP measurement; format: cell-based; details: recombinant CHO-K1 cells stably transfected with S1P1
Sequence of S1P1 receptor (P21453 whole entry): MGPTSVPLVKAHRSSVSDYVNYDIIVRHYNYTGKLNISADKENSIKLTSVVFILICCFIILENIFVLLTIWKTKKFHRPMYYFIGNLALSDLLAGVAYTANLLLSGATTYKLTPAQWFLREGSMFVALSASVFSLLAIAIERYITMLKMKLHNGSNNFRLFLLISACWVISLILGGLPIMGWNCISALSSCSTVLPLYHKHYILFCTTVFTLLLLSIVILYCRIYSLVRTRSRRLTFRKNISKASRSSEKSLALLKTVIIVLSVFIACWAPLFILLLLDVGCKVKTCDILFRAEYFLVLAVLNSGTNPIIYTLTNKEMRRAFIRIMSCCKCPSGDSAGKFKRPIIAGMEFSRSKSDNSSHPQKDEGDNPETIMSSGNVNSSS
Description: CHO-K1 cells were obtained from ATCC® (Manassas, Va.; Catalog #CCL-61). […] The HTRF® assay has been used to determine EC50 values for S1P1 receptor agonists. Principle of the assay: HTRF® assay kit was purchased from Cisbio-US, Inc. (Bedford, Mass.; Catalog #62AM4PEC). The HTRF® assay supported by the kit is a competitive immunoassay between endogenous cAMP produced by the CHO-K1 cells and tracer cAMP labeled with the dye d2. The tracer binding is visualized by a monoclonal anti-cAMP antibody labeled with Cryptate. The specific signal (i.e., fluorescence resonance energy transfer, FRET) is inversely proportional to the concentration of unlabeled cAMP in the standard or sample. Standard curve: The fluorescence ratio (665 nm/620 nm) of the standards (0.17 to 712 nM cAMP) included in the assay was calculated and used to generate a cAMP standard curve according to the kit manufacturer's instructions. The fluorescence ratio of the samples (test compound or compound buffer) was calculated and used to deduce respective cAMP concentrations by reference to the cAMP standard curve. […] The plate was then further incubated at room temperature for 1 hour, after which the assay plate was read. Assay readout: HTRF® readout was accomplished using a PHERAstar (BMG LABTECH Inc., Durham, N.C.) or EnVision™ (PerkinElmer, Fremont Calif.) microplate reader.

C57BL/6 mice [12] = test: MOG-induced experimental autoimmune encephalomyelitis (EAE) in mice; format: in vivo, mouse; details: 0.3, 1 and 3 mg/kg orally once a day from day 3 until day 21 (FIG. 4)

SMILES	MRI lesions and clinical disease activity [1]	ovariectomy-induced osteoporosis (mice [2])	VEGF-induced vascular permeability (mice [3])	nociceptive behavior [4]	ocular infiltrates [5]	induction of lymphopenia (PLL) [6]	adverse event in clinical trials (S1P3 receptor)	development of EAMG (C57BL/6 mice [7])	migration of infected dendritic cells to the mediastinal lymph node [8]	initiation of contact hypersensitivity (mice [9])	mean ankle diameter (Female Lewis rats)	peripheral blood lymphocyte (PBL) count lowering (BALB/c mice)	heart rate (bradycardia) (Sprague-Dawley rats [10])	peripheral blood lymphocyte (PBL) count lowering (Sprague-Dawley rats [11])	S1P1 receptor agonism (decreased cAMP concentration) (S1P1 receptor)	EC50 (S1P1 receptor; n = 22) [nM]	severity of disease symptoms (clinical score) in EAE (C57BL/6 mice [12])
CCCCCCCCc1ccc(CCC(N)(CO)CO)cc1 [FTY720]	reduce the number of lesions detected by magnetic resonance imaging (MRI) and clinical disease activity	relieved ovariectomy-induced osteoporosis	potently blocked VEGF-induced vascular permeability	reduce the nociceptive behavior	rapidly reduced ocular infiltrates	rapidly and reversibly induce lymphopenia	transient asymptomatic bradycardia	completely prevented the development of experimental autoimmune myasthenia gravis (EAMG)	impair migration of dendritic cells infected with Francisella tularensis to the mediastinal lymph node	impair initiation of murine contact hypersensitivity (CHS)	–	–	–	–	–	–	–
O=C(O)C[C@H]1CCc2c1[nH]c1ccc(OCc3ccc(C4CCCC4)c(C(F)(F)F)c3)cc21 [(R)-2-(7-(4-cyclopentyl-3-(trifluoromethyl)benzyloxy)-1,2,3,4-tetrahydrocyclopenta[b]indol-3-yl)acetic acid]	–	–	–	–	–	–	–	–	–	–	exhibited activity for reducing mean ankle diameter	exhibited activity for inducing PBL lowering (lymphopenia)	no or substantially no reduction of heart rate	exhibited activity for inducing PBL lowering (lymphopenia)	agonist of the S1P1 receptor	0.102	exhibited activity in the mouse EAE assay
